Laboratory results as given in patent US20140249135A1, “PIM KINASE INHIBITORS AND METHODS OF THEIR USE” (NOVARTIS AG, priority 2007, published 2014).
Where two headings read alike, the source gives them in different places.

Key:
Pim2 kinase = Pim2 kinase (Homo sapiens, UniProt Q9P1W9); assay: Pim2 ATP depletion assay; assay type: biochemical; details: read-out: IC50 (μM) PIM2;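 further: Luciferase-based luminescent readout of ATP remaining after PIM2 phosphorylates a BAD peptide, final 5 nM enzyme, 4 µM ATP, 10 µM peptide, 2.5% DMSO, run to roughly half ATP consumption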
Pim3 kinase = Pim3 kinase (Homo sapiens, UniProt Q86V86); assay: Pim3 ATP depletion assay; assay type: biochemical; details: read-out: IC50 (μM) PIM3
HEL 92.1.7 cells = assay: Cell proliferation assay (CellTiter-Glo), HEL 92.1.7; assay type: cell-based; details: Homo sapiens, read-out: EC50 (μM) HEL 92.1.7
Summary of the method: (§1)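 Cells in RPMI1640 with 10% FBS were seeded at 1000 cells/well and exposed to compound dilutions from DMSO stocks for 3 days at 37 °C. Viability was read by CellTiter-Glo luminescence. EC50 was derived from percent inhibition relative to DMSO-only and control-compound wells.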

MV4-11 cells = assay: Cell proliferation assay (CellTiter-Glo), MV4-11; assay type: cell-based; details: Homo sapiens
Description: HEL 92.1.7 cells (ATTC No. TIB-180, an erythroleukemia line derived from malignant peripheral blood), MV4-11 cells (ATCC No. CRL-9591, a human acute monocytic leukemia line) and PC3 cells (ATCC No. CRL-1435, a human prostatic adenocarcinoma line) were cultured in RPMI1640 supplemented with 10% FBS, sodium pyruvate and antibiotics. Cells were plated in the same medium at a density of 1000 cells per well into 96 well tissue culture plates, with outside wells vacant, on the day of assay. Test compounds supplied in DMSO were diluted into DMSO at 500 times the desired final concentrations before dilution into culture media to 2 times final concentrations. Equal volumes of 2× compounds were added to the cells in 96 well plates and incubated at 37° C. for 3 days. After 3 days plates were equilibrated to room temperature and equal volume of CellTiter-Glow Reagent (Promega) was added to the culture wells. The plates were agitated briefly and luminescent signal was measured with luminometer.

PC3 cells = assay: Cell proliferation assay (CellTiter-Glo), PC3; assay type: cell-based; details: Homo sapiens, PC-3
Summary of the method: as §1

[1] = biological target: T1, human full length PKCE enzyme (Homo sapiens, UniProt Q02156); assay: In vitro PKCE assay; assay type: biochemical; details: 10 nM enzyme, 40 uM peptide substrate, 20 uM ATP, KinaseGlo Plus readout; read-out: PKCε IC50
T1 construct: human full length PKCE enzyme purchased from InVitrogen; purchased InVitrogen
T1 sequence (Q02156 1-737): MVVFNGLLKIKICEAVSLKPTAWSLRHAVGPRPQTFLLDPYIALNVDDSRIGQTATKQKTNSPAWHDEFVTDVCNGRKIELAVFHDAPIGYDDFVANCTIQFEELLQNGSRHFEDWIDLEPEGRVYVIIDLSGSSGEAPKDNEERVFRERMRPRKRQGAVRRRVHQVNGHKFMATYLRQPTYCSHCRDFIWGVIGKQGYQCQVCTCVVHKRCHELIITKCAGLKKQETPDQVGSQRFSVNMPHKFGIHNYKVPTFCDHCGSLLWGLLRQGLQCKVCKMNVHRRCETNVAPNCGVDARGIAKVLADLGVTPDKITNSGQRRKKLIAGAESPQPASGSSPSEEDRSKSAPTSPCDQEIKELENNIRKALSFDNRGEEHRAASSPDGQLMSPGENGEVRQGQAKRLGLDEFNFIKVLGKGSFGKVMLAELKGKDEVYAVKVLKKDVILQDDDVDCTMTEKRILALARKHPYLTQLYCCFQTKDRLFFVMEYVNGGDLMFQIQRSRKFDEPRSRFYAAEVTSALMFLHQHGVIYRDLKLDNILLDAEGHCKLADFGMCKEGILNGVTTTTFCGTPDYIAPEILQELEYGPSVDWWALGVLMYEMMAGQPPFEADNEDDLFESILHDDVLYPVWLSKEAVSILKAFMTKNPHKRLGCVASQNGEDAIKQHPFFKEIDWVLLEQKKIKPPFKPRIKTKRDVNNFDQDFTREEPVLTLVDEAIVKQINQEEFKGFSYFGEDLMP

KDR kinase = KDR kinase (Homo sapiens, UniProt P35968); assay: KDR AlphaScreen assay; details: KDR IC50 (μM)
Pim1 kinase = Pim1 kinase (Homo sapiens, UniProt P11309); assay: Pim1 ATP depletion assay; assay type: biochemical; details: Pim1 ATP depletion assay; read-out: IC50 (μM) PIM1;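 further: Luciferase-luciferin luminescence readout of residual ATP after PIM1 transfers phosphate to a peptide substrate, 40 µM ATP added, reaction run to roughly half ATP consumption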
[2] = test system: KMS 11 (human myeloma cell line); assay: Cell proliferation assay (CellTiter-Glo), KMS 11; assay type: cell-based; details: KMS11 cells, read-out: EC50 (μM) KMS11
Description: (§2) KMS 11 (human myeloma cell line), were cultured in IMDM supplemented with 10% FBS, sodium pyruvate and antibiotics. Cells were plated in the same medium at a density of 2000 cells per well into 96 well tissue culture plates, with outside wells vacant, on the day of assay. MM1.s (human myeloma cell line), were cultured in RPMI1640 supplemented with 10% FBS, sodium pyruvate and antibiotics. Cells were plated in the same medium at a density of 5000 cells per well into 96 well tissue culture plates, with outside wells vacant, on the day of assay.
(§3) Test compounds supplied in DMSO were diluted into DMSO at 500 times the desired final concentrations before dilution into culture media to 2 times final concentrations. Equal volumes of 2× compounds were added to the cells in 96 well plates and incubated at 37° C. for 3 days.
(§4) After 3 days plates were equilibrated to room temperature and equal volume of CellTiter-Glow Reagent (Promega) was added to the culture wells. The plates were agitated briefly and luminescent signal was measured with luminometer. The percent inhibition of the signal seen in cells treated with DMSO alone vs. cells treated with control compound was calculated and used to determine EC50 values (i.e., the concentration of a test compound that is required to obtain 50% of the maximum effect in the cells) for tested compounds, as shown in Example 763.

[3] = test system: MM1.s (human myeloma cell line); assay: Cell proliferation assay (CellTiter-Glo), MM1.s; assay type: cell-based; details: MM1.s cells, read-out: EC50 (μM) MM1.s
Description: as §2, §3, §4

Flt3 kinase = biological target: T2, Flt3 kinase (Homo sapiens, UniProt P36888); assay: Flt3 AlphaScreen assay
T2 sequence (P36888 27-993): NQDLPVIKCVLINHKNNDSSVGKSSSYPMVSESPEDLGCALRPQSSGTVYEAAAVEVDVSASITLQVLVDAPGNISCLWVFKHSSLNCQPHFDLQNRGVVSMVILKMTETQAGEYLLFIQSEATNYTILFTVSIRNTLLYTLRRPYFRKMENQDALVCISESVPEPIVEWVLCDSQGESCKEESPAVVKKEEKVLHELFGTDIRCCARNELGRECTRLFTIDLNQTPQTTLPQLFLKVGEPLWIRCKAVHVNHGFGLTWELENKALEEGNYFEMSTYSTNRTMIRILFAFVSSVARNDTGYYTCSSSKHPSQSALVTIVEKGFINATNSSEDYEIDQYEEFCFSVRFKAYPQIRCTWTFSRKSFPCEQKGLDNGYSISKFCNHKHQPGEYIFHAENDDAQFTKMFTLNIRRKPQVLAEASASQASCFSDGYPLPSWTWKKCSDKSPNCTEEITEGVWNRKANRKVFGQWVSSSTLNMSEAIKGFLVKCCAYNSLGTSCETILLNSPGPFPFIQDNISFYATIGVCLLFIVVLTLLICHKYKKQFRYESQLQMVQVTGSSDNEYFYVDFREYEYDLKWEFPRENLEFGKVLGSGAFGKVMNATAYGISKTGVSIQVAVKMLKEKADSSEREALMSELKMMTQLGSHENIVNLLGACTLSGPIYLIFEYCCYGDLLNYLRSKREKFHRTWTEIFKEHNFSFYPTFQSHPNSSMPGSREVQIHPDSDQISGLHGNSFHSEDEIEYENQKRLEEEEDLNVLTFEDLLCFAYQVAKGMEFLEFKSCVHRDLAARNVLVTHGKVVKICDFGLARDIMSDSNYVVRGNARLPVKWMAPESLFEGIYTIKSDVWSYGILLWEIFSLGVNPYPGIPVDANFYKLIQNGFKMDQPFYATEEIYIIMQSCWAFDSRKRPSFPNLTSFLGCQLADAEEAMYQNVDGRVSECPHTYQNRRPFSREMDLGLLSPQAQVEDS

[4] = cell proliferation, MV4-11 cells, read-out: EC50 (μM) MV-4-11

Sequence of Pim2 kinase (Q9P1W9 whole entry): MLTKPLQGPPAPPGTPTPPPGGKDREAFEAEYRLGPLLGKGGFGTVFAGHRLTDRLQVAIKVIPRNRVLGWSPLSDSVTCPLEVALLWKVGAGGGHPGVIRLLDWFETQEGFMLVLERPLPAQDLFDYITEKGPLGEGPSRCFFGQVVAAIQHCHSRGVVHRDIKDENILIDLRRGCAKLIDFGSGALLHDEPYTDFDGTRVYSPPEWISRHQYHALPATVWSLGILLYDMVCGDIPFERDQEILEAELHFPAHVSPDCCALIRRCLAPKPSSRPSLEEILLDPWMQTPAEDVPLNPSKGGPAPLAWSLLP
Sequence of KDR kinase (P35968 20-1356): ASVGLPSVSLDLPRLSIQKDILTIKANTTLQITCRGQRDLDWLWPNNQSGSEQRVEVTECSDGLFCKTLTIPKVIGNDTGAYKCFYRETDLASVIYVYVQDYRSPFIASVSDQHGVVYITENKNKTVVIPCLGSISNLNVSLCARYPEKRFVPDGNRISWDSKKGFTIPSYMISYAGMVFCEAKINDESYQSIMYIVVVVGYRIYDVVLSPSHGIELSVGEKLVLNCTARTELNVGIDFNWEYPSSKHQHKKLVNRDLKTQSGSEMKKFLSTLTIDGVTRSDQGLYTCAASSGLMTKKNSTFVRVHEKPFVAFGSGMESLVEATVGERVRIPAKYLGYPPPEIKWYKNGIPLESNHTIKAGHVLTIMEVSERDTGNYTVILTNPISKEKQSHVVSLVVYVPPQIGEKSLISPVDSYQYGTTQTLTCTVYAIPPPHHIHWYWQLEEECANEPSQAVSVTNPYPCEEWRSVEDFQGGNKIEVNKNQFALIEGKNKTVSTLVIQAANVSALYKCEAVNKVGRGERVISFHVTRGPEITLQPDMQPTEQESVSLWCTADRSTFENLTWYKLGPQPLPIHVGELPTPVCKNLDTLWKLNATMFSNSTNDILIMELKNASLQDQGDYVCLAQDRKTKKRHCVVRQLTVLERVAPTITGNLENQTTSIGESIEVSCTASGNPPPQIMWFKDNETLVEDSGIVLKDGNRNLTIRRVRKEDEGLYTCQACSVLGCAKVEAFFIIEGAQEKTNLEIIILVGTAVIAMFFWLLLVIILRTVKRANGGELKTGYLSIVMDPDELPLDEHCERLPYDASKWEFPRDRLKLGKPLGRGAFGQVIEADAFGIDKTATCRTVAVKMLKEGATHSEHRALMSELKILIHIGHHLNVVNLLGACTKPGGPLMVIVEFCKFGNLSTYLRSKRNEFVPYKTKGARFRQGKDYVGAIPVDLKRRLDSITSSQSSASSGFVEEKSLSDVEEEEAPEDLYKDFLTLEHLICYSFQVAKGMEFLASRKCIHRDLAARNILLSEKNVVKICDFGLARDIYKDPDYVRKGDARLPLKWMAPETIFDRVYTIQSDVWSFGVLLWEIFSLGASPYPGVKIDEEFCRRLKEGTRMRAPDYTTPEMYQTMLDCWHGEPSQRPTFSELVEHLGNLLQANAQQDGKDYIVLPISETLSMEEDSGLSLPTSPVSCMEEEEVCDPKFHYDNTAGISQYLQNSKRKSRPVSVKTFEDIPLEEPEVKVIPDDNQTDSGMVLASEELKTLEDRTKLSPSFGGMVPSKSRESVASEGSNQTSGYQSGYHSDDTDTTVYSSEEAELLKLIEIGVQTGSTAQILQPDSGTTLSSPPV
Sequence of Pim1 kinase (P11309 whole entry): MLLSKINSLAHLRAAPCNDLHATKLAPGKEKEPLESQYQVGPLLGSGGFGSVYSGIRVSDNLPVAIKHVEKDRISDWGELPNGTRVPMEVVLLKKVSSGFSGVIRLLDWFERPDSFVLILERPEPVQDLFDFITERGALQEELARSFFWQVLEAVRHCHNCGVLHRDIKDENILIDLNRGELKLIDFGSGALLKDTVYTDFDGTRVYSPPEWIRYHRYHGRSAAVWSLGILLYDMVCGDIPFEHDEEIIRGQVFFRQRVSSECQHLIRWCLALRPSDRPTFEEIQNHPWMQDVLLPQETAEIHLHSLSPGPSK

Row | Structure (SMILES) | IC50 (Pim2 kinase) [µM] | IC50 (Pim3 kinase) [µM] | EC50 (HEL 92.1.7 cells) [µM] | EC50 (MV4-11 cells; MV4-11, read-out: EC50 (μM) MV-4-11) [µM] | EC50 (PC3 cells) [µM] | IC50 [1] [nM] | IC50 (KDR kinase) [µM] | IC50 (Pim1 kinase) [µM] | EC50 [2] [µM] | EC50 [3] [µM] | IC50 (Flt3 kinase) [nM] | EC50 (MV4-11 cells; [4]) [µM]
1 | Nc1nccnc1C(=O)Nc1cnccc1N1CCCC(N)C1 (stereo not drawn) [Example 187, 3-amino-N-[4-(3-aminopiperidin-1-yl)pyridin-3-yl]pyrazine-2-carboxamide] | < 1 | < 1 | 1 to 5 | < 1 | 1 to 5 | < 1000 | > 25 |  |  |  |  | 
2 | Nc1ccc(-c2c(F)cccc2F)nc1C(=O)Nc1cnccc1N1CCC[C@H](N)C1 [Example 425, 3-amino-6-(2,6-difluoro-phenyl)-pyridine-2-carboxylic acid ((S)-3-amino-3,4,5,6-tetrahydro-2H-[1,4′]bipyridinyl-3′-yl)-amide] | < 1 | < 1 | < 1 |  | 5 to 10 | 1000 to 10000 | 10 to 25 | < 1 | < 1 | < 1 |  | 
3 | CN(C)CCN(C)c1ccncc1NC(=O)c1nc(Br)cnc1N [Example 124, 3-amino-6-bromo-N-(4-{[2-(dimethylamino)ethyl]-(methyl)amino}pyridin-3-yl)pyrazine-2-carboxamide] | > 25 | 1 to 10 |  |  |  | 10000 to 25000 |  | 1 to 10 |  |  | 10000 to 25000 | 
4 | Nc1ccc(-c2ccccc2Cl)nc1C(=O)Nc1cnccc1N1CCC[C@H](N)C1 [Example 433, 3-amino-6-(2-chloro-phenyl)-pyridine-2-carboxylic acid ((S)-3-amino-3,4,5,6-tetrahydro-2H-[1,4′]bipyridinyl-3′-yl)-amide] | < 1 | < 1 | 1 to 5 |  |  | 1000 to 10000 | 10 to 25 | < 1 |  |  |  | < 1
5 | Nc1ccc(-c2ccccc2F)nc1C(=O)Nc1cnccc1N1CCC[C@H](N)C1 [Example 434, 3-amino-6-(2-fluoro-phenyl)-pyridine-2-carboxylic acid ((S)-3-amino-3,4,5,6-tetrahydro-2H-[1,4′]bipyridinyl-3′-yl)-amide] |  |  | 1 to 5 |  |  |  |  |  |  |  |  | < 1
